System: Caco-2 monolayers (efflux transport of Rhodamine 123)
Experiment: Inhibition Protocol: Rhodamine 123 transport across Caco-2 monolayers in the presence of TPGS analog
Type: cell-based
Settings: relative to Rhodamine 123 alone, TPGS analog 33 μmolar
Procedure: As used herein, the term “Inhibition Protocol” or “inhibition protocol” refers to the following test. The test is carried out using Caco-2 (C2BBe1 or HTB-37) monolayers which are known to be a good in vitro model for gastrointestinal epithelial cells. The following describes the inhibition protocol: Caco-2 cells, clone C2BBe1, from passages 48-92 are used. Cells are grown to ˜90% confluent in 75 cm^2 T-flasks with Dulbecco's modified Eagle's medium (DMEM) supplemented with 10% fetal bovine serum (FBS) and 1% non-essential amino-acids. Cells are grown at a temperature of ˜37° C. in an atmosphere of ˜85% relative humidity and ˜5% CO2. Cells are seeded on top of Transwell® inserts (pore size 0.4 μm, 1.13 cm^2) at a density of ˜60,000 cells/cm^2. […]
Rhodamine 123 (RHO) transport is assessed in absorptive (apical to basolateral, Ap→BI) and secretory (BI→Ap) directions. […]
Monolayers are agitated using an orbital shaker at ˜100±20 rpm. […] To ensure integrity of the monolayers, TEER values were measured on the day of the experiment and at the end of the experiment.
Apparent permeability (Papp) was calculated according to: Papp=(dQ/dt)*(1/A)*(1/Co)
where A (cm^2) is the nominal surface area of the monolayer and C0 (μg/mL) is the RHO concentration in the donor compartment at t=0. Relative change of Papp(cm/s)was calculated according to the equation: rel. increase/decrease=|(1−Papp(TPGS)/Papp(RHO))*100|. […]

d-α-tocopheryl polyethylene glycol succinate [TPGS 1000]
% Decrease, B to A: 73.6% | % Increase, A to B: 82.5%
